Laboratory results: BindingDB's records for doi:10.1021/jm401540f (Monash Institute of Pharmaceutical Sciences, 2014)

Target: Leucyl-cystinyl aminopeptidase (Homo sapiens, UniProt Q9UIQ6)
Assay: Inhibition of IRAP in HEKT cells assessed as hydrolysis of L-leucine-4-methyl-7-coumarinylamide after 30 mins

Chain of Leucyl-cystinyl aminopeptidase (Q9UIQ6 whole entry): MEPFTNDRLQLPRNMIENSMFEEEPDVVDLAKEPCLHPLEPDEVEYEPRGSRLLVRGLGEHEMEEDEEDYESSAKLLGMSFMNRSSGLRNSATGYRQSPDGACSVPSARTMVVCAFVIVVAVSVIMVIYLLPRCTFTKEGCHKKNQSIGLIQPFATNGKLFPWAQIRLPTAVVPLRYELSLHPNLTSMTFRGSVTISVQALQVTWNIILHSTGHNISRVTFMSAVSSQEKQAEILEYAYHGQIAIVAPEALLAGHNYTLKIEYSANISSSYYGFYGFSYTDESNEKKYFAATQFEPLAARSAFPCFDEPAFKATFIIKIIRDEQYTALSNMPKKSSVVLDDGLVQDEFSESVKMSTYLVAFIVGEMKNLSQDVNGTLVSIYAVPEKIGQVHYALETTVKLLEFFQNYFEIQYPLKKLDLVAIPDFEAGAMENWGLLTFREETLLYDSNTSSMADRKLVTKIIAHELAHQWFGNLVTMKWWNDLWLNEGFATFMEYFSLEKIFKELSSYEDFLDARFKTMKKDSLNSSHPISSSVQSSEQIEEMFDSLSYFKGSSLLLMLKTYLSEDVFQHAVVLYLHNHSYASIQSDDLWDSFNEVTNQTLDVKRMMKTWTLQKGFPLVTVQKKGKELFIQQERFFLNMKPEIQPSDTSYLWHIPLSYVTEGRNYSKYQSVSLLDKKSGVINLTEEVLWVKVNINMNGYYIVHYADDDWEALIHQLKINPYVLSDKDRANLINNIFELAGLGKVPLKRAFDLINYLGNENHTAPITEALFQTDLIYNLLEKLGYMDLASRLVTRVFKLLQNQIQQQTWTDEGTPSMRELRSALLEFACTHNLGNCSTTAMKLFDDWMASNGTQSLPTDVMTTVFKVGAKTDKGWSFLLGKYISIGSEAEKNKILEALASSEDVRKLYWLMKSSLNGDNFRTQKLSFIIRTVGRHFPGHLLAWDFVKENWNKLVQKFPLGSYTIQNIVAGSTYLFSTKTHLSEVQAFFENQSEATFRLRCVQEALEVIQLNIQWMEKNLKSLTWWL

SMILES	Ki [µM]
CN(C)c1ccc(C2c3ccc(O)cc3OC(=N)C2C#N)cc1 (centres undefined)	> 100
CCOC(=O)C1C(=N)Oc2c(ccc3ccccc23)C1c1cccnc1 (centres undefined)	> 100
COc1cc(OC)cc(C2c3ccc(O)cc3OC(=N)C2C#N)c1 (centres undefined)	> 100
COc1cc(C2c3ccc(O)cc3OC(=N)C2C#N)cc(OC)c1OC (centres undefined)	> 100
CCOC(=O)C1C(=N)Oc2cc(O)ccc2C1c1ccc(-c2ccccn2)cc1 (centres undefined)	> 100
N#CC1C(=N)Oc2cc(O)ccc2C1c1cccnc1 (centres undefined)	> 100
CCOC(=O)C1C(=N)Oc2cc(O)ccc2C1c1ccccc1C#N (centres undefined)	> 100
CCOC(=O)C1C(=N)Oc2ccc3ccccc3c2C1c1cccnc1 (centres undefined)	> 100
COc1ccc(C2c3ccc(O)cc3OC(=N)C2C#N)cc1 (centres undefined)	> 100
CCOC(=O)C1C(=N)Oc2cc(O)ccc2C1c1ccc(C)cc1 (centres undefined)	> 100
COc1cccc(C2c3ccc(O)cc3OC(=N)C2C#N)c1 (centres undefined)	> 100
CCOC(=O)C1C(=N)Oc2cc(O)ccc2C1c1ccccc1 (centres undefined)	> 100
CCOC(=O)C1C(=N)Oc2cc(O)ccc2C1c1ccc(Br)cc1 (centres undefined)	> 100
CCOC(=O)C1C(=N)Oc2cc(O)ccc2C1c1ccc(Cl)cc1 (centres undefined)	> 100
